Measurements as given in patent US20180214428A1, “3-(1H-INDOL-2-YL)-1H-PYRAZOLO[3,4-B]PYRIDINES AND THERAPEUTIC USES THEREOF” (Samumed, LLC, priority 2015, published 2018).

Tests used:
IL-6 = IL-6 inhibition in LPS-stimulated THP-1 monocytes (HTRF); assay type: cell-based, human; details: Homo sapiens, THP-1 cells; for EC50: 500 ng/mL LPS, 22 h, HTRF IL-6 readout, 10-point dose-response from 10 μM; for inhibition at 10 µM: LPS stimulated, given only where EC50 >10 μM, top concentration 10 μM, read-out: percentage in parentheses beside EC50 >10 (IL-6 inhibition)
Procedure, shortened: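 THP-1 cells serum-reduced (1% FBS, 24 h), then 5000 cells/well preincubated 2 h with compound (10-point 1:3 series from 10 μM, 0.1% DMSO) before 500 ng/mL LPS for 22 h at 37 °C. Secreted IL-6 quantified by HTRF 665/620 ratio; DMSO-normalised duplicates fitted to four-parameter EC50; above 10 μM, % inhibition at 10 μM given.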

[1] = tested on: primary human mesenchymal stem cells (hMSCs); experiment: Induction of chondrogenesis in primary human mesenchymal stem cells; assay type: cell-based; details: Homo sapiens, Mesenchymal stem cells, 144 h, 6 days; for Emax: chondrogenic nodules, TGF-β3 (10 ng/mL) positive control, read-out: Max. Activity as % TGF-β3 activity; for EC50: concentration required to induce 50% levels of chondrogenesis vs TGF-β3, read-out: Conc (nM) of 50% TGF-β3 activity
Description: Representative compounds were screened using primary human mesenchymal stem cells (hMSCs) to determine their ability to induce chondrogenesis (process by which cartilage is developed).
Primary human mesenchymal stem cells (hMSCs) were purchased from Lonza (Walkersville, Md.) and expanded in Mesenchymal Stem Cell Growth Media (Lonza). Cells between passage 3 and 6 were used for the experiments.
Each compound was dissolved in DMSO as a 10 mM stock and used to prepare compound source plates. Serial dilution (1:3, 6-point dose-response curves from 2700 nM to 10 nM) and compound transfer was performed using the ECHO 550 (Labcyte, Sunnyvale, Calif.) into 96-well clear bottom assay plates (Greiner Bio-One) with appropriate DMSO backfill for a final DMSO concentration of 0.03%. hMSCs were plated at 20,000 cells/well in 250 μL/well Incomplete Chondrogenic Induction Medium (Lonza; DMEM, dexamethasone, ascorbate, insulin-transferrin-selenium [ITS supplement], gentamycin-amphotericin [GA-1000], sodium pyruvate, proline and L-glutamine). TGF-β3 (10 ng/mL) was used as a positive control for differentiation while negative control wells were treated with 75 nL DMSO for normalization and calculating EC50 values. Cells were incubated at 37° C. and 5% CO2 for 6 days. To image chondrogenic nodules, the cells were fixed using 4% formaldehyde (Electron Microscopy Sciences), and stained with 2 μg/mL Rhodamine B (Sigma-Aldrich) and 20 μM Nile Red (Sigma-Aldrich) [Johnson K., et. al, A Stem Cell-Based Approach to Cartilage Repair, Science, (2012). 336(6082), 717-721]. The nodules imaged (4 images per well at 4× magnification) by excitation at 531 nm and emission at 625 nm and quantified using the CellInsight CX5 (Thermo Scientific). Number of nodules in each well was normalized to the average of 3 DMSO treated wells on the same plate using Excel (Microsoft Inc.). The normalized averages (fold change over DMSO) of 3 replicate wells for each compound concentration were calculated. Due to solubility limitations of some of the compounds, curve fitting was incomplete leading to inaccurate EC50 determinations.
Using TGF-β3 as a positive control, the concentration of representative compounds required to induce 50% levels of chondrogenesis is reported. In addition, the maximum activity of each compound and the respective dose that each compound reached maximum chondrogenesis activity is reported.

EC50 (IL-6) | EC50 [1] | SMILES | Emax [1] | inhibition at 10 µM (IL-6)
0.212 µM | 10 nM | Fc1ccc(-c2cccc3[nH]c(-c4n[nH]c5ncc(-c6cncc(CN7CCCC7)c6)cc45)cc23)cc1 [Compound 35, 3-(4-(4-Fluorophenyl)-1H-indol-2-yl)-5-(5-(pyrrolidin-1-ylmethyl)pyridin-3-yl)-1H-pyrazolo[3,4-b]pyridine] | 160% | –
0.076 µM | – | c1cncc(-c2cnc3[nH]nc(-c4cc5c(-c6cccnc6)cccc5[nH]4)c3c2)c1 [Compound 74, 5-(Pyridin-3-yl)-3-(4-(pyridin-3-yl)-1H-indol-2-yl)-1H-pyrazolo[3,4-b]pyridine] | 29% | –
0.088 µM | 300 nM | CC(C)(C)C(=O)Nc1cncc(-c2cnc3[nH]nc(-c4cc5c(-c6cccnc6)cccc5[nH]4)c3c2)c1 [Compound 78, N-(5-(3-(4-(Pyridin-3-yl)-1H-indol-2-yl)-1H-pyrazolo[3,4-b]pyridin-5-yl)pyridin-3-yl)pivalamide] | 232% | –
0.104 µM | – | O=C(Nc1cncc(-c2cnc3[nH]nc(-c4cc5c(-c6cccnc6)cccc5[nH]4)c3c2)c1)C1CCC1 [Compound 89, N-(5-(3-(4-(Pyridin-3-yl)-1H-indol-2-yl)-1H-pyrazolo[3,4-b]pyridin-5-yl)pyridin-3-yl)cyclobutanecarboxamide] | 41% | –
0.607 µM | – | FC1(F)CCN(Cc2cncc(-c3cnc4[nH]nc(-c5cc6c(-c7ccncc7)cccc6[nH]5)c4c3)c2)C1 [Compound 118, 5-(5-((3,3-Difluoropyrrolidin-1-yl)methyl)pyridin-3-yl)-3-(4-(pyridin-4-yl)-1H-indol-2-yl)-1H-pyrazolo[3,4-b]pyridine] | 29% | –
0.266 µM | 900 nM | Nc1cncc(-c2cnc3[nH]nc(-c4cc5c(-c6ccccn6)cccc5[nH]4)c3c2)c1 [Compound 121, 5-(3-(4-(Pyridin-2-yl)-1H-indol-2-yl)-1H-pyrazolo[3,4-b]pyridin-5-yl) pyridin-3-amine] | 117% | –
0.194 µM | – | CCNCc1cncc(-c2cnc3[nH]nc(-c4cc5c(-c6ccccn6)cccc5[nH]4)c3c2)c1 [Compound 124, N-((5-(3-(4-(Pyridin-2-yl)-1H-indol-2-yl)-1H-pyrazolo[3,4-b]pyridin-5-yl)pyridin-3-yl)methyl)ethanamine] | 32% | –
4 µM | – | c1ccc(CNCc2cncc(-c3cnc4[nH]nc(-c5cc6ccccc6[nH]5)c4c3)c2)cc1 [Compound 250, 1-(5-(3-(1H-Indol-2-yl)-1H-pyrazolo[3,4-b]pyridin-5-yl)pyridin-3-yl)-N-benzylmethanamine] | – | –
0.69 µM | – | CS(=O)(=O)NCc1cc(F)cc(-c2cccc3[nH]c(-c4n[nH]c5ncc(-c6ccccn6)cc45)cc23)c1 [Compound 478, N-(3-Fluoro-5-(2-(5-(pyridin-2-yl)-1H-pyrazolo[3,4-b]pyridin-3-yl)-1H-indol-4-yl)benzyl)methanesulfonamide] | – | –
6.01 µM | – | c1ccc(CNCc2cncc(-c3cnc4[nH]nc(-c5cc6ncccc6[nH]5)c4c3)c2)cc1 [Compound 502, 1-(5-(3-(1H-Pyrrolo[3,2-b]pyridin-2-yl)-1H-pyrazolo[3,4-b]pyridin-5-yl)pyridin-3-yl)-N-benzylmethanamine] | – | –
0.116 µM | – | FC1(F)CCN(Cc2cncc(-c3cnc4[nH]nc(-c5cc6ncccc6[nH]5)c4c3)c2)C1 [Compound 504, 5-(5-((3,3-Difluoropyrrolidin-1-yl)methyl)pyridin-3-yl)-3-(1H-pyrrolo[3,2-b]pyridin-2-yl)-1H-pyrazolo[3,4-b]pyridine] | – | –
3.6 µM | – | Fc1ccccc1-c1cccc2[nH]c(-c3n[nH]c4ncc(C5CCNCC5)cc34)cc12 [Compound 539, 3-(4-(2-Fluorophenyl)-1H-indol-2-yl)-5-(piperidin-4-yl)-1H-pyrazolo[3,4-b]pyridine] | – | –

The next lines start with the molecule.

SMILES | EC50 (IL-6) | EC50 [1] | Emax [1] | inhibition at 10 µM (IL-6)
CN(C)c1cncc(-c2cnc3[nH]nc(-c4cc5c(-c6cccc(F)c6)cccc5[nH]4)c3c2)c1 [Compound 5, 5-(3-(4-(3-Fluorophenyl)-1H-indol-2-yl)-1H-pyrazolo[3,4-b]pyridin-5-yl)-N,N-dimethylpyridin-3-amine] | 0.899 µM | – | 49% | –
Fc1ccc(-c2cccc3[nH]c(-c4n[nH]c5ncc(-c6cncc(CN7CCCCC7)c6)cc45)cc23)cc1 [Compound 36, 3-(4-(4-Fluorophenyl)-1H-indol-2-yl)-5-(5-(piperidin-1-ylmethyl)pyridin-3-yl)-1H-pyrazolo[3,4-b]pyridine] | > 10 µM | 10 nM | 67% | 45.5%
Fc1ccc(-c2cccc3[nH]c(-c4n[nH]c5ncc(-c6cncnc6)cc45)cc23)cc1 [Compound 47, 3-(4-(4-Fluorophenyl)-1H-indol-2-yl)-5-(pyrimidin-5-yl)-1H-pyrazolo[3,4-b]pyridine] | > 10 µM | 10 nM | 135% | 35.6%
Nc1cncc(-c2cnc3[nH]nc(-c4cc5c(-c6ccccc6F)cccc5[nH]4)c3c2)c1 [Compound 49, 5-(3-(4-(2-Fluorophenyl)-1H-indol-2-yl)-1H-pyrazolo[3,4-b]pyridin-5-yl) pyridin-3-amine] | 0.276 µM | – | 134% | –
CCNCc1cncc(-c2cnc3[nH]nc(-c4cc5c(-c6ccccc6F)cccc5[nH]4)c3c2)c1 [Compound 52, N-((5-(3-(4-(2-Fluorophenyl)-1H-indol-2-yl)-1H-pyrazolo[3,4-b]pyridin-5-yl)pyridin-3-yl)methyl)ethanamine] | 2.69 µM | – | 64% | –
CC(C)Nc1cncc(-c2cnc3[nH]nc(-c4cc5c(-c6cccnc6)cccc5[nH]4)c3c2)c1 [Compound 81, N-Isopropyl-5-(3-(4-(pyridin-3-yl)-1H-indol-2-yl)-1H-pyrazolo[3,4-b]pyridin-5-yl)pyridin-3-amine] | 1.56 µM | 10 nM | 264% | –
c1cncc(-c2cccc3[nH]c(-c4n[nH]c5ncc(-c6cncc(CN7CCCCC7)c6)cc45)cc23)c1 [Compound 84, 5-(5-(Piperidin-1-ylmethyl)pyridin-3-yl)-3-(4-(pyridin-3-yl)-1H-indol-2-yl)-1H-pyrazolo[3,4-b]pyridine] | 0.355 µM | 900 nM | 82% | –
CC(C)(C)C(=O)Nc1cncc(-c2cnc3[nH]nc(-c4cc5c(-c6ccoc6)cccc5[nH]4)c3c2)c1 [Compound 290, N-(5-(3-(4-(Furan-3-yl)-1H-indol-2-yl)-1H-pyrazolo[3,4-b]pyridin-5-yl)pyridin-3-yl)pivalamide] | > 10 µM | – | – | 31.2%
Cc1ccncc1-c1cnc2[nH]nc(-c3cc4c(-c5cc(F)cc(CNS(C)(=O)=O)c5)cccc4[nH]3)c2c1 [Compound 455, N-(3-Fluoro-5-(2-(5-(4-methylpyridin-3-yl)-1H-pyrazolo[3,4-b]pyridin-3-yl)-1H-indol-4-yl)benzyl)methanesulfonamide] | > 10 µM | – | – | 54.8%
Fc1cccc(-c2cccc3[nH]c(-c4n[nH]c5ncc(-c6cncc(OCc7ccccc7)c6)cc45)cc23)c1 [Compound 520, 5-(5-(Benzyloxy)pyridin-3-yl)-3-(4-(3-fluorophenyl)-1H-indol-2-yl)-1H-pyrazolo[3,4-b]pyridine] | > 10 µM | – | – | 31.3%
Oc1cncc(-c2cnc3[nH]nc(-c4cc5c(-c6cccs6)cccc5[nH]4)c3c2)c1 [Compound 711, 5-(3-(4-(Thiophen-2-yl)-1H-indol-2-yl)-1H-pyrazolo[3,4-b]pyridin-5-yl) pyridin-3-ol] | 1.96 µM | – | – | –
c1ccc(COc2cncc(-c3cnc4[nH]nc(-c5cc6ncccc6[nH]5)c4c3)c2)cc1 [Compound 1006, 5-(5-(Benzyloxy)pyridin-3-yl)-3-(1H-pyrrolo[3,2-b]pyridin-2-yl)-1H-pyrazolo[3,4-b]pyridine] | 0.168 µM | – | – | –
